In patent US6506801B1, “Methods of treating anosmia and repopulating olfactory nerves with retinoids” (Monell Chemical Senses Center, priority 2000, dated 2003):

Legend:
complicated anosmia = conditions: Duncan et al. 1962; cited from earlier work
[1] = tested on: olfactory nerve recovery after bilateral olfactory nerve transection; assay: Buried food task after bilateral olfactory nerve transection (BNX)

Compound | usefulness in treating anosmia associated with skull injuries and fractures with sheering of olfactory nerves (complicated anosmia) | initial rate of recovery versus BNX-oil ([1]; BNX mice, FIG. 1, food-finding times to post-surgical day 14) | treatment effect on mean food finding times across the recovery period ([1]; BNX mice, post-surgical days 3-14, two-factor repeated measures ANOVA, F(1,15)=5.85, p<0.05, treatment X day interaction p<0.005) | mean post-surgical day on which animals reached criterion for initial recovery (first day of three consecutive days of <180 seconds food-finding time) ([1]; BNX mice, single oral 75 mg/kg atRA in sesame oil one day after surgery, n=9, BNX-oil 10.75±1.28, p<0.05) | post-surgical days between which animals reached criterion for initial recovery ([1]; BNX mice, single oral 75 mg/kg atRA in sesame oil, n=9) | recovery time needed to return to pre-surgical level of performance (≦30 seconds) ([1]; BNX mice, single oral 75 mg/kg atRA, no difference from BNX-oil (9.25 days), p=0.761) | food-finding performance of sham-operated animals after surgery ([1]; sham mice, single oral 75 mg/kg atRA, n=4, FIG. 1)
Vitamin A | not to be useful | – | – | – | – | – | –
CC1=C(/C=C/C(C)=C/C=C/C(C)=C/C(=O)O)C(C)(C)CCC1 [RA, all-trans retinoic acid] | – | faster | significant treatment effect | 7.56±0.67 post-surgical day | 4-11 post-surgical days | 9.8 days | performed at pre-surgical levels
